Measurements: US20130281504A1, “Reduction of Microglia-Mediated Neurotoxicity by KCa3.1 Inhibition” (THE REGENTS OF THE UNIVERSITY OF CALIFORNIA, priority 2010, published 2013)
Read-outs that look alike come from different tables or passages of the source.

Key:
p38MAPK = p38MAPK phosphorylation in microglia (Western blot); type: cell-based, mouse; details: doxycycline 20 μM, TRAM-34 1 μM, FIG. 2D
Description: Primary microglia cultures derived from newborn C57BL/6J mice were prepared from mixed glia cultures with the “shaking off” method described by Maezawa, I., et al.; (2006) FASEB J 20, 797-799. […] To obtain conditioned medium (CM) for treating neurons, microglia were first cultured in 24-well culture plates at a density of 1.3×10^5 cells/cm^2 for 24 hrs in DMEM with 10% fetal bovine serum (DMEM10). Cultures were washed extensively and changed to the Neurobasal medium with B27 supplement (NB/B27, Invitrogen) without serum and cultured for another 24 hrs. The NB/B27-based microglia CMs were collected, briefly centrifuged, and used immediately or frozen for future uses.
To obtain lysates, cells or tissues were washed with ice-cold PBS and incubated with a buffer containing 50 mmol/L Tris-HCl (pH 7.4), 150 mmol/L NaCl, 2% SDS, proteinase inhibitor cocktail (Sigma), and phosphatase inhibitor cocktail (Sigma). Lysates were briefly sonncated and cleared by centrifugation at 50,000 rpm for 10 min. Equivalent amounts of protein were analyzed by Tris/HCL gel electrophoresis. Proteins were transferred to polyvinylidene difluoride membranes and probed with antibodies. Visualization was performed using enhanced chemiluminescence (ECL, Amersham Pharmacia, Piscataway, N.J.).
The following primary antibodies (dilutions) were used: anti-p38MAPK (1:1000, Cell Signaling Technology, Boston, Mass.), anti-phospho-p38MAPK (1:1000, Cell Signaling Technology), anti-Synaptophysin (1:1000, Abcam), anti-PSD95 (1:1000, cell signaling), anti-GRIP 1 (1:1000, UpState), anti-MAP2 (1:1000, Chemicon), anti-acetylated α-tubulin (1:2000, Zymed), and anti-β-actin (1:3000, Sigma). Secondary antibodies were HRP-conjugated anti-rabbit, anti-goat, or anti-mouse antibody (1:3000 Amersham).

NFκB = NFκB assay in microglia; type: cell-based, mouse; details: 2 hrs; 20 μM doxycycline, 1 μM TRAM-34; FIG. 2E
Description: The detection of cells with active NFκB was performed according to the method described by Franciosi, S., et al.; (2006) J Neurosci 26, 11652-11664. Briefly, microglia were plated as described above and treated with activators for 2 hrs. Cells were fixed and stained with anti-NF-κBp65 antibody (1:250, Chemicon) and with the nuclear dye DAPI.

microglia = experiment: Assay for nitric oxide (nitrite) in microglia conditioned medium; type: cell-based, mouse; details: 24 hr
[1] = Physiological parameters by I-STAT in venous blood of MCAO rats; type: in vivo, rat; details: ±SD
Description: […] […] Slices were then fixed in 10% buffer formalin embedded in paraffin and sectioned at 5 Sections were stained with hematoxylin & eosin and scanned. The resulting jpg images were analyzed in Adobe Photoshop CS3 for infarct area using the Magnetic Lasso tool to outline the area and the Histogram tool to determine the number of pixels in the respective area. Percent infarct for each slice was calculated as: (pixels in […]/pixels in whole control hemisphere)×100. Percentage of total infarct area of whole hemisphere was calculated as: (summation of pixels in infarct from 8 slices/summation of pixels in whole control hemisphere from 8 slices)×100. The degree of brain shrinkage was calculated from the same data.

[2] = mice, previously determined; cited from earlier work
[3] = Pharmacokinetics and brain concentrations in rats (HPLC/MS); details: rat
Description: At various time points following the injection approximately 100-200 μl of blood were collected from a tail nick into EDTA blood sample collection tubes. […] Blood samples were taken by cardiac puncture under deep isoflurane anesthesia. The right atrium was then cut open and 20 mL of saline slowly injected into the left ventricle to flush the blood out of the circulation. The rats were then sacrificed and brains removed. Plasma was separated by centrifugation and samples stored at −80° C. pending analysis. Plasma and homogenized brain samples were purified using C18 solid phase extraction (SPE) cartridges. […] LC/MS analysis was performed with a Hewlett-Packard 1100 series HPLC stack equipped with a Merck KGaA RT 250-4 LiChrosorb RP-18 column interfaced to a Finnigan LCQ Classic MS. The mobile phase consisted of acetonitrile and water, both containing 0.2% formic acid.

[4] = After Reperfusion, TRAM-34 10 mg/kg
[5] = After Reperfusion, TRAM-34 40 mg/kg
[6] = Day-7 after MCAO, TRAM-34 10 mg/kg
[7] = Day-7 after MCAO, TRAM-34 40 mg/kg

In the case of Clc1ccccc1C(c1ccccc1)(c1ccccc1)n1cccn1 [TRAM-34, 1-[(2-chlorophenyl)diphenylmethyl]-1H-pyrazole], the “LPS-induced p38MAPK phosphorylation” value (p38MAPK; LPS 100 ng/ml, 30 minutes) is reported as “no significant difference”, the “AβO-induced p38MAPK phosphorylation” value (p38MAPK; microglia treated 30 minutes) is reported as “no significant difference” and the “AβO-induced NFκB activation (p65-immunoreactive cells)” value (NFκB) is reported as “prevented”. The “LPS-induced NFκB activation” value (NFκB) was “not significantly”, the “microglia NO production, compound alone” value (microglia; without AβO) was “did not affect NO production” and the “AβO-induced increase of microglia NO production” value (microglia; 20 μM doxycycline, 1 μM TRAM-34, FIG. 2F) was “prevented”. The “HCO3^−” value [1, 4] was 33.8 ± 6.4 mmol/L, the Hemoglobin [1, 4] was 14.3 ± 1.5 g/dL and the “K^+” value [1, 4] was 6.3 ± 1.1 mmol/L. For the same compound, the pCO2 [1, 4] was 66.6 ± 28.3 mm Hg, the pH [1, 4] was 7.34 ± 0.1 and the Hemoglobin [1, 5] was 14.5 ± 1.4 g/dL. For the same compound, the “K^+” value [1, 5] was 5.7 ± 0.5 mmol/L, the “Na^+” value [1, 5] was 135.5 ± 2.3 mmol/L and the pCO2 [1, 5] was 60.8 ± 33.4 mm Hg. For the same compound, the BUN [1, 6] was 18.7 ± 6.8 mg/dL, the Glucose [1, 6] was 185.2 ± 41.2 mg/dL and the “HCO3^−” value [1, 6] was 29.7 ± 2.5 mmol/L. For the same compound, the Hemoglobin [1, 6] was 12.7 ± 2.1 g/dL, the “K^+” value [1, 6] was 4.8 ± 1.1 mmol/L and the “Na^+” value [1, 6] was 137.7 ± 4.1 mmol/L. It also gave a pCO2 [1, 6] of 58.1 ± 12.7 mm Hg, a pH [1, 6] of 7.3 ± 0.06 and a BUN [1, 7] of 19.6 ± 4.7 mg/dL. For the same compound, the Glucose [1, 7] was 201.1 ± 40.1 mg/dL, the “HCO3^−” value [1, 7] was 29.2 ± 1.3 mmol/L and the Hemoglobin [1, 7] was 13.3 ± 1.5 g/dL. The “K^+” value [1, 7] was 4.2 ± 0.3 mmol/L, the “Na^+” value [1, 7] was 138.8 ± 3.5 mmol/L and the pCO2 [1, 7] was 49.3 ± 7.3 mm Hg. For the same compound, the pH [1, 7] was 7.4 ± 0.07, the half-life [2] was 1 h and the Kp ([3]; Wistar, in vivo) was 1.2. The half-life ([3]; male, Wistar, in vivo, iv, 10 mg/kg, half-life, rat plasma, calculated from elimination part of i.v. plot) was roughly 2 h, the “total plasma and brain levels, peak” value ([3]; i.p. 10 mg/kg, between 30 min and 1 hour) was “around 2.5” and the plasma peaks ([3]; s.c. 120 mg/kg) was 2.5 ± 1 µM.
